In PMC12266748, “A Xanthine Derivative With Novel Heat Shock Protein 90‐Alpha Inhibitory and Senolytic Properties” (Aging Cell, 2025):

Legend:
Assay type in all cases: cell-based, Homo sapiens
[1] = test system: MCF7 cells; assay: Western blot of MCF7 protein expression after Tamoxifen treatment; settings: MCF7, TAM 10 μM + K5 10 μM, compared to DMSO
Description: WB was performed according to standard procedures and detected by UVITEC (Eppendorf). Densitometric analysis was performed with NIH ImageJ 1.8 software.
Western Blot. WB was performed according to standard procedures. Total protein extract was performed as in (Aiello et al. 2016). Western blot assay used 10 µg of protein extract and proteins solved by SDS-PAGE. […] Densitometric analysis was performed with NIH Image J 1.8 software (National Institutes of Health, Bethesda, MD, USA), and specific values were normalized to loading control (β-Actin).

[2] = test system: WI38 cells; assay: SA-β-galactosidase colorimetric assay on senescent WI38
Description: (§1) Previously treated cells were fixed according to the protocols established by the supplier (Cell Signaling). The images were acquired using an optical microscope (Leica) with 5× and 10× magnification (MAG) or the phase microscopy EVOS XL Core at 10× MAG and analyzed using the ImageJ software. The mean signal intensity was then normalized for the total number of cells.
β-galactosidase colorimetric assay. For cell cultures: Previously treated cells were fixed with the fixative solution for 10 min at RT according to the protocols established by the supplier (Senescence β-Galactosidase Staining Kit, #9860S, Cell Signaling, Danvers, MA, USA) Cells were then incubated with the substrate, X-gal, in a solution at pH 6, at 37°C, overnight (16 h) (Itahana et al. 2007). The images were acquired using an optical microscope (Leica, Wetzlar, Germany) with 5 and 10X magnification or the phase microscopy EVOS XL Core at 10X magnification. The images were analyzed using the ImageJ software, quantifying the colorimetric signal emitted by each cell. The mean signal intensity was then normalized for the total number of cells.

[3] = test system: MCF7 cells; assay: SA-β-galactosidase colorimetric assay on Tamoxifen-treated MCF7
Description: as §1
MCF7 cell line (ATCC; HTB-22, Homo sapiens, breast cancer) was purchased from ATCC; cells were grown in MEM medium (Corning, New York, USA, #15-010-CVR) supplemented with 10% FBS (Gibco, Invitrogen, Carlsbad, CA, USA, #10270106), 1% glutamine (Corning #25005-CI), 1% penicillin and streptomycin (Corning #30002-CI). Cells were incubated at 37 °C with 5% CO2. […] Cell mortality and vitality curves after treatment with K5 (10 μM, orange) or Vehicle (DMSO, grey) were monitored using the Incucyte live-cell Analysis system (Sartorius, Goettingen, Germany). The estimated Senolytic index (SI) was calculated as the ratio between the EC50 in proliferating cells and the EC50 in senescent cells, extrapolated using GraphPad Prism 10 software.
β-galactosidase colorimetric assay. […] The images were analyzed using the ImageJ software, quantifying the colorimetric signal emitted by each cell. […]

[4] = test system: MCF7 cells; assay: Annexin V staining of senescent MCF7 (Incucyte); settings: Tamoxifen-induced senescent MCF7, K5 10 μM, after 24 h, over 96 h
Description: Senescent MCF7 cells were treated with K5 and Incucyte Annexin V NIR Dye (Sartorius). Cells were monitored using the Incucyte live‐cell Analysis system (Sartorius). Images were acquired using the phase microscopy EVOS XL Core at 10× magnification and analyzed using the ImageJ software.
Annexin V staining. MCF7 were plated 24 h before the treatment with 4-Hydroxytamoxifen (TAM) 10 μM for 96 h to induce the senescence described by (Lee et al. 2014). Control cultures were treated with equal volumes of 75% ethanol as the vehicle. Then, cells were washed and treated with the senolytic drug K5 10 µM and DMSO as solvent control for another 96 h and with the Incucyte Annexin V NIR Dye (1:200, Sartorius). Cells were monitored using the Incucyte live-cell Analysis system (Sartorius). The images were acquired using the phase microscopy EVOS XL Core at 10X magnification and analyzed using the ImageJ software. The mean signal intensity was then normalized for the total number of cells.

Cc1ccccc1-n1c(=O)n(Cc2ccccc2)c(=O)c2[nH]cnc21 [Compound K5, 1-benzyl-3-(2-methylphenyl)-7H-purine-2,6-dione]
Caspase 3 protein level [1]: further increased | reduced SA-β-gal+ cells [2]: 10% | SA-β-gal positive senescent cells ([3]; MCF7, TAM 10 μM 96 h then K5 10 μM 24 to 96 h, Vehicle 40%): 10% | reduced SA-β-gal ([3]; Tamoxifen-induced senescent MCF7): 30% | Annexin V signal [4]: significant and stable increase
